US20080113908A1, “Use of CRF receptor agonists for the treatment or Prophylaxis of diseases, for example Neurodegenerative diseases” (SmithKline Beecham plc, priority 2000, published 2008)

Tested on: primary cerebellar granule neurones
Experiment: Neuroprotection by agonists with or without cAMP inhibitor Rp-cAMP (FIG. 4)
Assay type: cell-based, rat
Details: Rp-cAMP 100 μM; agonists 10 nM; LY 294002 75 μM
Protocol: FIG. 4 illustrates percentage mean survival of primary cerebellar granule neurones, when in the presence of the PI 3-kinase inhibitor LY 294002 (75 μM) and also a CRF receptor agonist at 10 nM (CRF, urocortin, urotensin 1, or sauvagine), in the absence or presence of the cAMP inhibitor Rp-cAMP (100 μM). The columns from left to right represent: (1) control without LY 294002 or agonist; (2) control without agonist but with LY 294002; (columns 3, 5, 7, 9) with LY 294002 and either CRF, urocortin, urotensin 1, or sauvagine respectively; (columns 4, 6, 8, 10) as columns 3, 5, 7 and 9 respectively but additionally also with Rp-cAMP. The approx. 20% reduction in neuroprotection when in the presence of Rp-cAMP is clear.

## Nc1ncnc2c1ncn2[C@@H]1O[C@@H]2CO[P@@](O)(=S)O[C@H]2[C@H]1O [Rp-cAMPS]
  reduction of neuronal rescue provided by the CRF receptor agonists: about 20%
